Where two headings read alike, the source gives them in different places.
How the values were obtained:
[1] = Caco-2 cell monolayer membrane transport assay (Papp and recovery); type: in vitro ADME; conditions: human; for Papp B→A: Caco-2, Papp B-A
Text: Caco-2 Cell Monolayer Membrane Transport Assay
Human-derived colorectal adenocarcinoma cell line Caco-2 cell monolayer model was used to study the bidirectional transport of the target compounds from the apical (AP) side to the basolateral (BL) side and from BL side to AP side. HPLC was used for quantitative analysis to calculate transport parameters, apparent permeability coefficient (Papp) and the efflux ratio.

[2] = test system: LNCaP prostate cancer; assay: MTT proliferation inhibition, LNCaP; type: cell-based; conditions: Homo sapiens, read-out: Proliferation inhibition rate, LNCaP Prostate cancer
Text: (§1) 1. Cytotoxicity Assay Using Human Tumor Cell Lines
(§2) Paclitaxel was used as the positive drug.

[3] = test system: LN-18; assay: MTT proliferation inhibition, LN-18; type: cell-based; conditions: Homo sapiens, LN-18, read-out: Proliferation inhibition rate, LN-18 Gastric canser
Text: as §1, §2

[4] = test system: A375 melanoma; assay: MTT proliferation inhibition, A375; type: cell-based; conditions: Homo sapiens, A-375, read-out: Proliferation inhibition rate, A375 Melanoma
Text: as §1, §2

[5] = test system: A2780 ovarian cancer; assay: MTT proliferation inhibition, A2780; type: cell-based; conditions: Homo sapiens, A2780, read-out: Proliferation inhibition rate, A2780 Ovarian cancer
Text: as §1, §2

[6] = test system: Hela cervical cancer; assay: MTT proliferation inhibition, HeLa; type: cell-based; conditions: Homo sapiens, read-out: Proliferation inhibition rate, HeLa Uterin cancer
Text: as §1, §2

[7] = test system: A549 non-small cell lung cancer; assay: MTT proliferation inhibition, A549; type: cell-based; conditions: Homo sapiens, A549, read-out: Proliferation inhibition rate, A549 Non-small cell lung cancer
Text: as §1, §2

[8] = test system: MCF-7 breast cancer cells; assay: MTT proliferation inhibition, MCF-7; type: cell-based; conditions: Homo sapiens, MCF7, read-out: Proliferation inhibition rate, MCF-7 Breast cancer
Text: as §1, §2

[9] = test system: HCT 116 colon cancer; assay: MTT proliferation inhibition, HCT 116; type: cell-based; conditions: Homo sapiens, HCT-116, read-out: Proliferation inhibition rate, HCT 116 Colon cancer
Text: as §1, §2

[10] = test system: Du145 prostate cancer; assay: MTT proliferation inhibition, Du145; type: cell-based; conditions: Homo sapiens, DU-145, read-out: Proliferation inhibition rate, DU145 Prostate cancer
Text: as §1, §2

[11] = test system: B16 melanoma; assay: MTT proliferation inhibition, B16; type: cell-based; conditions: B16, read-out: Proliferation inhibition rate, B16 Melanoma
Text: as §1, §2

[12] = test system: BGC-823 gastric cancer; assay: MTT proliferation inhibition, BGC-823; type: cell-based; conditions: Homo sapiens, BGC-823, read-out: Proliferation inhibition rate, BGC-823 Gastric cancer
Text: as §1, §2

[13] = test system: MDA-MB-436 breast cancer cells; assay: MTT proliferation inhibition, MDA-MB-436; type: cell-based; conditions: Homo sapiens, MDA-MB-436, read-out: Proliferation inhibition rate, MDA-MB-436 Breast cancer
Text: as §1, §2

[14] = test system: NCI-H460 non-small cell lung cancer; assay: MTT proliferation inhibition, NCI-H460; type: cell-based; conditions: Homo sapiens, NCI-H460, read-out: Proliferation inhibition rate, NCI-H460 Non-small cell lung cancer
Text: as §1, §2

[15] = test system: HT-29 colon cancer; assay: MTT proliferation inhibition, HT-29; type: cell-based; conditions: Homo sapiens, HT-29, read-out: Proliferation inhibition rate, HT29 Colon cancer
Text: as §1, §2

[16] = test system: breast cancer cell line MCF-7; assay: IC50 on breast cancer cell line MCF-7; type: cell-based; conditions: Homo sapiens, MCF7, 72 h, read-out: MCF-7 (IC50, nM)
Experimental: From the activity evaluation data of the above-mentioned preliminary screen, it can be seen that the series of taxanes derivatives synthesized in the present invention have activity. Afterward, the compounds are investigated to examine their IC50 values on breast cancer cell line MCF-7. […] Experiments for each compound were independently repeated for three times and multiple holes were used in each experiment. The exposure time of drugs was 72 hours.

[17] = test system: HL-60 leukemia; assay: MTT proliferation inhibition, HL-60; type: cell-based; conditions: Homo sapiens, HL-60, read-out: Proliferation inhibition rate, HL60 Leukemia
Text: as §1, §2

[18] = test system: K562 leukemia; assay: MTT proliferation inhibition, K562; type: cell-based; conditions: Homo sapiens, K562, read-out: Proliferation inhibition rate, K562 Leukemia
Text: as §1, §2

[19] = Caco-2, Recovery rate in mass, Mean
[20] = Caco-2, Recovery rate in mass, Sample-01
[21] = Caco-2, Recovery rate in mass, Sample-02
[22] = Caco-2, Caco-2, A-B, Mean, read-out: Recovery rate in mass, Mean
[23] = Caco-2, Caco-2, A-B, Sample-01, read-out: Papp A-B, Sample-01
[24] = Caco-2, Caco-2, A-B, Sample-01, read-out: Recovery rate in mass, Sample-01
[25] = Caco-2, Caco-2, A-B, Sample-02, read-out: Papp A-B, Sample-02
[26] = Caco-2, Caco-2, A-B, Sample-02, read-out: Recovery rate in mass, Sample-02

| Compound | recovery [1, 19] [%] | recovery [1, 20] [%] | recovery [1, 21] [%] | inhibition at 1 µM [2] [%] | inhibition at 1 µM [3] [%] | inhibition at 1 µM [4] [%] | inhibition at 1 µM [5] [%] | recovery [1, 22] [%] | Papp A→B [1, 23] [×10⁻⁶ cm/s] | recovery [1, 24] [%] | Papp A→B [1, 25] [×10⁻⁶ cm/s] | recovery [1, 26] [%] | inhibition at 1 µM [6] [%] | inhibition at 1 µM [7] [%] | inhibition at 1 µM [8] [%] | inhibition at 1 µM [9] [%] | inhibition at 1 µM [10] [%] | inhibition at 1 µM [11] [%] | inhibition at 1 µM [12] [%] | inhibition at 1 µM [13] [%] | further results |
| --- | --- | --- | --- | --- | --- | --- | --- | --- | --- | --- | --- | --- | --- | --- | --- | --- | --- | --- | --- | --- | --- |
| CC[C@H]1OC(=O)[C@H](C)[C@@H](O[C@H]2C[C@@](C)(OC)[C@@H](O)[C@H](C)O2)[C@H](C)[C@@H](O[C@@H]2O[C@H](C)C[C@H](N(C)C)[C@H]2O)[C@](C)(O)C[C@@H](C)C(=O)[C@H](C)[C@@H](O)[C@]1(C)O [Erythromycin, reference compound] | 99 | 99.6 | 98.5 | – | – | – | – | – | – | – | – | – | – | – | – | – | – | – | – | – | – |
| COCCc1ccc(OCC(O)CNC(C)C)cc1 (centres unmarked) [Metoprolol, reference compound] | 99 | 103 | 95.5 | – | – | – | – | – | – | – | – | – | – | – | – | – | – | – | – | – | Papp A→B ([1]; Caco-2, Papp A-B, Mean): 27.2 ×10⁻⁶ cm/s; Papp A→B ([1]; Caco-2, Papp A-B, Sample-01): 28.1 ×10⁻⁶ cm/s; Papp A→B ([1]; Caco-2, Papp A-B, Sample-02): 26.2 ×10⁻⁶ cm/s; Papp B→A ([1]; Mean): 22.7 ×10⁻⁶ cm/s; Papp B→A ([1]; Sample-01): 22.4 ×10⁻⁶ cm/s; Papp B→A ([1]; Sample-02): 23 ×10⁻⁶ cm/s |
| CO[C@H]1C(=O)[C@]2(C)[C@@H](OC)C[C@H]3OC[C@@]3(OC(C)=O)[C@H]2[C@H](OC(=O)c2ccccc2)[C@]23OC(=O)O[C@H]2[C@H](OC(=O)[C@H](O)[C@@H](NC(=O)c2ccccc2)c2ccccc2)C(C)=C1C3(C)C [PCMI-02] | – | – | – | 83.7 | 96.6 | 89.8 | 94.7 | 50.8 | 1.5 | 44.1 | 1.47 | 57.4 | 98.2 | 79.6 | 93.5 | 66.4 | 84.7 | 84.1 | 94.2 | 82.6 | inhibition at 1 µM [14]: 82.2%; inhibition at 1 µM [15]: 89%; IC50 [16]: 6.93 ± 0.12 nM; inhibition at 1 µM [17]: 95.9%; inhibition at 1 µM [18]: 94.7% |
| CO[C@H]1C(=O)[C@]2(C)[C@@H](OC)C[C@H]3OC[C@@]3(OC(C)=O)[C@H]2[C@H](OC(=O)c2ccccc2)[C@]23OC(=O)O[C@H]2[C@H](OC(=O)[C@H](O)[C@H](CC(C)C)NC(=O)OC(C)(C)C)C(C)=C1C3(C)C [PCMI-05] | – | – | – | 81.6 | 93.3 | 87.9 | 94.6 | 54.7 | 2.59 | 58.1 | 2.56 | 51.3 | 99.5 | 67.8 | 84.9 | 58.7 | 83.9 | 71.5 | 90.9 | 74.5 | inhibition at 1 µM [14]: 82%; inhibition at 1 µM [15]: 87.9%; IC50 [16]: 4.04 ± 0.18 nM; inhibition at 1 µM [17]: 97.2%; inhibition at 1 µM [18]: 91.4% |
